Laboratory results reported in ChEMBL document CHEMBL4715880, “Cancer Stem Cell (CSC) Inhibitors in Oncology-A Promise for a Better Therapeutic Outcome: State of the Art and Future Perspectives” (J Med Chem, 2020).
Values belong to the compound of their own block, whether it stands above or below them.

Key:
Homo sapiens = test: Anti-CSC activity in patient with pSTAT3-positive tumors assessed as overall survival time at 480 mg, po administered bid with interval of 12 hrs; assay type: functional
MDA-MB-231 [1] = test: Anti-CSC activity against human MDA-MB-231 cells incubated for 48 hrs by MTT assay; assay type: functional, cell-based; conditions: MDA-MB-231, 48 h
PC-3 [2] = test: Anti-CSC activity against human PC-3 cells assessed as inhibition of sphere formation at 25 nM by sphere assay relative to control; assay type: functional
DU-145 [3] = test: Anti-CSC activity against human DU145 cells incubated for 1 week with intermittent feeding of medium after day 3 by alamarblue staining based soft agar method; assay type: functional, cell-based
[4] = Cytotoxicity against human PBMC by MTT assay; assay type: tissue-based
PC-3 [5] = test: Anti-CSC activity against human PC-3 cells assessed as inhibition of sphere formation at 2.5 uM by phase-contrast microscopy relative to control; assay type: functional
PC-3 [6] = test: Anti-CSC activity against human PC-3 cells incubated for 1 week by alamarblue staining based soft agar method; assay type: functional, cell-based; conditions: PC-3, 168 h
T47D = test: Anti-CSC activity against human T47D cells incubated for 48 hrs by MTT assay; assay type: functional, cell-based
MDA-MB-231 [7] = test: Anti-CSC activity against human MDA-MB-231 cells assessed as inhibition of sphere formation at 250 nM by phase-contrast microscopy; assay type: functional
[8] = Selectivity ratio of IC50 for human hFOB1.19 cells to IC50 for human MG-63 cells
[9] = Selectivity ratio of IC50 for […] to IC50 for human MG-63 cells
MG-63 = test: Cytotoxicity against human MG-63 cells incubated for 48 hrs by CCK-8 assay; assay type: functional, cell-based; conditions: MG-63, 48 h
HOS-TE85 = test: Cytotoxicity against human MNNG/HOS cells incubated for 48 hrs by CCK-8 assay; assay type: functional, cell-based; conditions: HOS-TE85, 48 h
MDA-MB-231 [10] = test: Anti-CSC activity against human MDA-MB-231 cells by MTT assay; assay type: functional, cell-based
MDA-MB-231 [11] = test: Anti-CSC activity against human MDA-MB-231 cells by soft agar assay; assay type: functional, cell-based
DU-145 [12] = test: Anti-CSC activity against human DU-145 cells by MTT assay; assay type: functional, cell-based
PC-3 [13] = test: Anti-CSC activity against human PC-3 cells by soft agar assay; assay type: functional, cell-based
PC-3 [14] = test: Anti-CSC activity against human PC-3 cells by MTT assay; assay type: functional, cell-based

Structure (SMILES): CC(=O)c1cc2c(o1)C(=O)c1ccccc1C2=O [NAPABUCASIN]
Time (Homo sapiens): 5.1 months

IC50 (MDA-MB-231 [1]): 730 nM | IC50 (DU-145 [3]): 1160 nM
Structure (SMILES): O=C(CCl)Nc1ccc2c(c1)CCC2
inhibition at 0.025 µM (PC-3 [2]): > 50%

IC50 (MDA-MB-231 [1]): 2160 nM | IC50 (PC-3 [6]): 2900 nM
Structure (SMILES): O=C(Cn1cc(COc2cccc3ccccc23)nn1)Nc1ccc(Cl)cc1
IC50 [4]: > 100000 nM | inhibition at 2.5 µM (PC-3 [5]): 50%

IC50 (T47D): 330 nM | IC50 (DU-145 [3]): 270 nM
Structure (SMILES): N#Cc1c(NC(=O)CCl)sc2c1CCCC2
inhibition at 0.025 µM (PC-3 [2]): > 50%

IC50 (MDA-MB-231 [1]): 1470 nM | IC50 (PC-3 [6]): 12100 nM
Structure (SMILES): O=C(Cn1cc(COc2ccc3ccccc3c2)nn1)Nc1ccc(Cl)cc1
IC50 [4]: > 100000 nM | inhibition at 0.25 µM (MDA-MB-231 [7]): > 50%

Structure (SMILES): Oc1ccc(/C=C/c2cc(O)cc(O)c2)cc1 [RESVERATROL]
Ratio IC50 [8]: >40 | Ratio IC50 [9]: >40 | IC50 (MG-63): 28600 nM | IC50 (HOS-TE85): 20600 nM

IC50 (MDA-MB-231 [10]): 2430 nM | IC50 (MDA-MB-231 [11]): 2130 nM | IC50 (DU-145 [12]): 2870 nM | IC50 (PC-3 [13]): 3460 nM | IC50 (PC-3 [14]): 2860 nM
Structure (SMILES): C=C(C)[C@H](CC=C(C)C)C[C@]12C[C@H](CC=C(C)C)C(C)(C)[C@](CC=C(C)C)(C(=O)C(C(=O)c3ccc(O)c(O)c3)=C1O)C2=O
